Measurements: ChEMBL document CHEMBL1201862, “PubChem BioAssay data set” (2004)
The source made the active and inactive calls.

Tests used:
Genome polyprotein = Genome polyprotein (dengue virus type 2, UniProt P29990); experiment: Dengue-2 NS5 methyltransferase inhibitors, primary screen, biochemical, confirmation dose response (AID 588689); assay type: functional
Protein RecA = molecular target: T1, Protein RecA (Mycobacterium tuberculosis, UniProt P9WHJ3); experiment: Fluorescence Cell-Free Homogeneous Dose Retest to Identify Inhibitors of RecA-Intein Splicing Activity. [Related pubchem assays (depositor defined):AID2097, AID2223, AID489010, AID492950]; assay type: functional
T1 sequence (P9WHJ3 whole entry): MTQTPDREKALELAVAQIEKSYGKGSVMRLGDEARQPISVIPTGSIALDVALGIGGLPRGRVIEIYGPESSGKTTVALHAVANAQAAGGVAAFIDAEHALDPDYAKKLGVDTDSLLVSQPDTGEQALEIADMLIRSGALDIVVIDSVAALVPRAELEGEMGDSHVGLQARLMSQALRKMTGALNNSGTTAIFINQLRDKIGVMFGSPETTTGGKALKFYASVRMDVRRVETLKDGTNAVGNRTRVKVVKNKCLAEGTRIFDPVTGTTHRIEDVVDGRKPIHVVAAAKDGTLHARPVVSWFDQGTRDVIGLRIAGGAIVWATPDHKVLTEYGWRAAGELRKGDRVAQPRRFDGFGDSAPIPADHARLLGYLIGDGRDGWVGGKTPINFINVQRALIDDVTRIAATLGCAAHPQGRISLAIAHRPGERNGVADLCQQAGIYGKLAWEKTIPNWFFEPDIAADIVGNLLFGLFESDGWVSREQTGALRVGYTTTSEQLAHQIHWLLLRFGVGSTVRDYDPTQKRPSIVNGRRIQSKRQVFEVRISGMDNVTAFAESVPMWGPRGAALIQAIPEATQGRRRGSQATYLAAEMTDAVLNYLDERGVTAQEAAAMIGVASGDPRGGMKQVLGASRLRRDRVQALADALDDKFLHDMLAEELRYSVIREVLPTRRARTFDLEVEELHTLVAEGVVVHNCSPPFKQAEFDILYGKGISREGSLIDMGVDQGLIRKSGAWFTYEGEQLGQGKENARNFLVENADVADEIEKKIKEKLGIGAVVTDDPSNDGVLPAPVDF

[1] = molecular target: T2, Replicative DNA helicase DnaB (Mycobacterium tuberculosis, UniProt P9WMR3); experiment: DnaB intein splicing inhibitors, dose response, biochemical, cell-free fluorescence (AID 449749); assay type: functional
T2 sequence (P9WMR3 whole entry): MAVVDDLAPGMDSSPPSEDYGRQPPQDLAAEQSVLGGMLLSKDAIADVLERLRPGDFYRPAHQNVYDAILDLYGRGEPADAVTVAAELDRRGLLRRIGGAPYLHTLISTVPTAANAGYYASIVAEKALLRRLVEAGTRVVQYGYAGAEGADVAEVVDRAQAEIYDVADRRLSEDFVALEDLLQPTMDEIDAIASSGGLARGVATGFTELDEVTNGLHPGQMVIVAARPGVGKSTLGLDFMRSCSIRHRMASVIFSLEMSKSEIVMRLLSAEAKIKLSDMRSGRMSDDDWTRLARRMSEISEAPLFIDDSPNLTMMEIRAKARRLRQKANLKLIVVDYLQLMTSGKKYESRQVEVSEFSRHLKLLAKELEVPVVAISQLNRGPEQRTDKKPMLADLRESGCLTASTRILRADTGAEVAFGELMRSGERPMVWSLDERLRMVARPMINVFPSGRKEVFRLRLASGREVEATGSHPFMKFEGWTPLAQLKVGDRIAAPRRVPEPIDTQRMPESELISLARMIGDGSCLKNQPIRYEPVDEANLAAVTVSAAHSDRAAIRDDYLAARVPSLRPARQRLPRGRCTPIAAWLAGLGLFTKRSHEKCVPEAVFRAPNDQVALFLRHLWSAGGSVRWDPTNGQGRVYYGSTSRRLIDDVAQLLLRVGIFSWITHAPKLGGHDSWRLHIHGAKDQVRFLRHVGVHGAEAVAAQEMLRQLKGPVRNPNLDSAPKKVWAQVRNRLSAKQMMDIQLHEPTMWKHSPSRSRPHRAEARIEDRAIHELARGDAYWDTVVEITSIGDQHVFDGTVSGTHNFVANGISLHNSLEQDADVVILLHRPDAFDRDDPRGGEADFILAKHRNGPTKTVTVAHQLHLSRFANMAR

[2] = molecular target: T3, Sentrin-specific protease 8 (Homo sapiens, UniProt Q96LD8); assay type: functional
T3 sequence (Q96LD8 whole entry): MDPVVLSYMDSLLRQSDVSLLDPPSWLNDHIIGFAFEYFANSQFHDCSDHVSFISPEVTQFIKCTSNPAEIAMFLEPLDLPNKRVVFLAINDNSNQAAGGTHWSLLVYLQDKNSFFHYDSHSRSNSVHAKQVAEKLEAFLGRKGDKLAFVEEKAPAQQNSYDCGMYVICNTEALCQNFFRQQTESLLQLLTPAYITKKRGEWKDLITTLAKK

[3] = molecular target: T4, Apoptotic protease-activating factor 1 (Homo sapiens, UniProt O14727); assay type: functional
T4 sequence (O14727 whole entry): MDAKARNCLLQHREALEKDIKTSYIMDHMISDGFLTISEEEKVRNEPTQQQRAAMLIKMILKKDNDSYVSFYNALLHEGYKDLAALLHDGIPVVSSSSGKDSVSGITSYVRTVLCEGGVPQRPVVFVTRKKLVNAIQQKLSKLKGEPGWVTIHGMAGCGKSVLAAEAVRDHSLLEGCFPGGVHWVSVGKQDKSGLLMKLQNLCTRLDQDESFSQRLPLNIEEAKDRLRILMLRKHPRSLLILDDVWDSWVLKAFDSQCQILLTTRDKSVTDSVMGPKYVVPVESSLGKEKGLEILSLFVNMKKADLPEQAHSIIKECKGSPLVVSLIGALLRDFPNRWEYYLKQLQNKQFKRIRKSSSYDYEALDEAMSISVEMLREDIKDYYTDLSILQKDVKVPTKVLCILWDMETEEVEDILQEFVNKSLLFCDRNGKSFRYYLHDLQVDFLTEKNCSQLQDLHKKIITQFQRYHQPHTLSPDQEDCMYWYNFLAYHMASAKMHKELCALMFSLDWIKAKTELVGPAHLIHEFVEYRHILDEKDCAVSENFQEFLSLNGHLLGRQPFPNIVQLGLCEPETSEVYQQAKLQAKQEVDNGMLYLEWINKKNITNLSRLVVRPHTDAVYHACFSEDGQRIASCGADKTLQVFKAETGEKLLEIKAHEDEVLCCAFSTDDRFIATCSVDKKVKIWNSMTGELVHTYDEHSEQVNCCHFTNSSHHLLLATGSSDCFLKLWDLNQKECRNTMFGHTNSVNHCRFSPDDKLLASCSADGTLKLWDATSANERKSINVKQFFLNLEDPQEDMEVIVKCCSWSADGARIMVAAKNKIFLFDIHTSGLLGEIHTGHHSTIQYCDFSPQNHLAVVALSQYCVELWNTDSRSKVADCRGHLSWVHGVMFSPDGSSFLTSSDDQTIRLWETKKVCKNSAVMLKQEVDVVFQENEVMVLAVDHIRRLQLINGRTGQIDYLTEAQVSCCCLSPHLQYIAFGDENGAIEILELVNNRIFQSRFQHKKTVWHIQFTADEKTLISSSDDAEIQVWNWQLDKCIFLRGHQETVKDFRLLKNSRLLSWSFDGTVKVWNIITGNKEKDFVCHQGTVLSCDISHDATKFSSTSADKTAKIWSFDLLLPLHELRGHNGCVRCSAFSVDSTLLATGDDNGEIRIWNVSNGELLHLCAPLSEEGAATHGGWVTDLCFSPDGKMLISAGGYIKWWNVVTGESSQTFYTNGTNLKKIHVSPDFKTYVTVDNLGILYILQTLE

[4] = molecular target: T3, Sentrin-specific protease 8; assay type: functional; remark: listed apart in the source
[5] = Shn3 3'UTR reporter inhibitors, dose response, cell-based, Clone20 osteoblasts, firefly luciferase, cherry-picked (AID 624132); assay type: functional;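 also: firefly luciferase luminescence from reporter carrying the Shn3 3'UTR in osteoblasts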
[6] = inhibitors of HIV Env-driven cell fusion, dose response, cherry-pick (AID 652057); assay type: functional, cell-based
[7] = control 3'UTR Renilla luciferase suppression, dose response, counter-screen for Shn3 inhibitor project, cell-based, Clone20-Shn3RL, cherry-picked (AID 624133); assay type: functional
[8] = HepG2 cell cytotoxicity, dose response, cytotoxicity control for Shn3 inhibitor project, CellTiter-Glo, cherry-picked (AID 624134); assay type: functional, cell-based
[9] = off-target signal loss in HeLa-CEM21 co-culture – HeLa F-luc CTL cells, cherry-picked, counter-screen for HIV-1 Env fusion inhibitor project, dose response (AID 652040); assay type: functional, cell-based;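 also: potency for signal decrease marking cytotoxic or nonspecific inhibition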
[10] = CEM21 lymphoblast cell cytotoxicity, dose response, cytotoxicity control for viral fusion inhibitor project, CellTiter-Glo luminescence, cherry-picked (AID 652042); assay type: functional, cell-based;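 also: potency for signal decrease meaning cytotoxicity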
[11] = inhibitors of clade B AD8 Env fusion, dose response, cell-based, cherry-pick (AID 652062); assay type: functional;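 also: luciferase signal from cell-cell fusion driven by HIV-1 clade B AD8 Env; potency is for inhibitors of fusion seen as a drop in luminescence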
Mu-type opioid receptor = Mu-type opioid receptor (Homo sapiens, UniProt P35372); assay type: functional, cell-based;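 also: U2OS cells with beta-arrestin recruitment to OPRM1 by beta-gal complementation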
[12] = molecular target: 5-hydroxytryptamine receptor 2A (Mus musculus, UniProt P35363); assay type: functional, cell-based;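 also: CHO-K1 cells with tagged receptor and beta-arrestin; agonist potency measured as compound-induced activation of the receptor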
[13] = HeLa cell cytotoxicity, dose response, cytotoxicity control for MgcRacGAP inhibitor project (AID 624300); assay type: functional
[14] = HEp-2 cell cytotoxicity, dose response, cytotoxicity control for RSV inhibitor project, HTS (AID 2410); assay type: functional; conditions: human respiratory syncytial virus
[15] = molecular target: T5, Rac GTPase-activating protein 1 (Homo sapiens, UniProt Q9H0H5); experiment: MgcRacGAP GTPase-activating activity inhibitors, confirmation, biochemical, ADP Hunter fluorescence, primary and confirmatory (AID 624330); assay type: functional
T5 sequence (Q9H0H5 whole entry): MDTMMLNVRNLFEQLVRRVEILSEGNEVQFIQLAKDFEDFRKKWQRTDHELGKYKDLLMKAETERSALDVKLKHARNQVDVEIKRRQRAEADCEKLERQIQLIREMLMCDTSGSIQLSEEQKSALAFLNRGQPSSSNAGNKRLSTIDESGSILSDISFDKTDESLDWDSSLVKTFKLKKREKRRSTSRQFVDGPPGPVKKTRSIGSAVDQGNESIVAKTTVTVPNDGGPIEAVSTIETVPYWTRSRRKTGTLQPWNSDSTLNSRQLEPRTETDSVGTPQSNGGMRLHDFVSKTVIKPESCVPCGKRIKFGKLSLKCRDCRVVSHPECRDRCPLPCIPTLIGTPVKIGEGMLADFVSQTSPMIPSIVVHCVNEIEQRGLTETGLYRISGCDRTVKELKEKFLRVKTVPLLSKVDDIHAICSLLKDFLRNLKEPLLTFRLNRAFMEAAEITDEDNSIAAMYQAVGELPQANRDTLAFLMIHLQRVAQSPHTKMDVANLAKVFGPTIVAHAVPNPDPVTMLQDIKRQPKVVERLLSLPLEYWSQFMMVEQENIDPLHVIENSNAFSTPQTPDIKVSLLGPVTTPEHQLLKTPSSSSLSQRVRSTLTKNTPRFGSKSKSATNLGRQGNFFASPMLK

[16] = microbe, parasite or virus in culture; assay type: functional; conditions: Mycobacterium tuberculosis

5-hydroxytryptamine receptor 2A, sequence (P35363 whole entry): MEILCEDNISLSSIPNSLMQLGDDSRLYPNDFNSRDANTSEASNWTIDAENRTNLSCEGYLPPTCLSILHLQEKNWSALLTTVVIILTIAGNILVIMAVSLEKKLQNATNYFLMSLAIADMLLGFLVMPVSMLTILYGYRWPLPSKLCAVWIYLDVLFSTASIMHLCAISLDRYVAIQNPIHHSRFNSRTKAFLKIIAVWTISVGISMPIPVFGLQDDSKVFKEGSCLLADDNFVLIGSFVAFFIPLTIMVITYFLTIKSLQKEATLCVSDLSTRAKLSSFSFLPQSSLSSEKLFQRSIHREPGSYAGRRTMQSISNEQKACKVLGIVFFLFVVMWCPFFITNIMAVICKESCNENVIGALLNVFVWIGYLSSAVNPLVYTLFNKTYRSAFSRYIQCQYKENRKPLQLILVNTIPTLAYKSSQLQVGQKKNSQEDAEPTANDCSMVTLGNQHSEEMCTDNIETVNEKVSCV
Mu-type opioid receptor, sequence (P35372 whole entry): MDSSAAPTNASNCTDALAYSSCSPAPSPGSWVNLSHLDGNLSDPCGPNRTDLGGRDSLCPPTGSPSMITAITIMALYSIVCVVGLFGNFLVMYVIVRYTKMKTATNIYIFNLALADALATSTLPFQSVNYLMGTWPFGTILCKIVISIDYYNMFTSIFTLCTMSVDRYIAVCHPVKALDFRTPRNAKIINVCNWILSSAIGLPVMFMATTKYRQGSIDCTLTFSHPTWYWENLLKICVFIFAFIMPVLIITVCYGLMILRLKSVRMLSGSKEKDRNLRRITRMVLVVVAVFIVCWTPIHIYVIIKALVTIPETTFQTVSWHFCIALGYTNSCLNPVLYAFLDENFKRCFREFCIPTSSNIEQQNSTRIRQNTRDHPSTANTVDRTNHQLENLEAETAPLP
Genome polyprotein, sequence (P29990 2492-3391 limits assumed): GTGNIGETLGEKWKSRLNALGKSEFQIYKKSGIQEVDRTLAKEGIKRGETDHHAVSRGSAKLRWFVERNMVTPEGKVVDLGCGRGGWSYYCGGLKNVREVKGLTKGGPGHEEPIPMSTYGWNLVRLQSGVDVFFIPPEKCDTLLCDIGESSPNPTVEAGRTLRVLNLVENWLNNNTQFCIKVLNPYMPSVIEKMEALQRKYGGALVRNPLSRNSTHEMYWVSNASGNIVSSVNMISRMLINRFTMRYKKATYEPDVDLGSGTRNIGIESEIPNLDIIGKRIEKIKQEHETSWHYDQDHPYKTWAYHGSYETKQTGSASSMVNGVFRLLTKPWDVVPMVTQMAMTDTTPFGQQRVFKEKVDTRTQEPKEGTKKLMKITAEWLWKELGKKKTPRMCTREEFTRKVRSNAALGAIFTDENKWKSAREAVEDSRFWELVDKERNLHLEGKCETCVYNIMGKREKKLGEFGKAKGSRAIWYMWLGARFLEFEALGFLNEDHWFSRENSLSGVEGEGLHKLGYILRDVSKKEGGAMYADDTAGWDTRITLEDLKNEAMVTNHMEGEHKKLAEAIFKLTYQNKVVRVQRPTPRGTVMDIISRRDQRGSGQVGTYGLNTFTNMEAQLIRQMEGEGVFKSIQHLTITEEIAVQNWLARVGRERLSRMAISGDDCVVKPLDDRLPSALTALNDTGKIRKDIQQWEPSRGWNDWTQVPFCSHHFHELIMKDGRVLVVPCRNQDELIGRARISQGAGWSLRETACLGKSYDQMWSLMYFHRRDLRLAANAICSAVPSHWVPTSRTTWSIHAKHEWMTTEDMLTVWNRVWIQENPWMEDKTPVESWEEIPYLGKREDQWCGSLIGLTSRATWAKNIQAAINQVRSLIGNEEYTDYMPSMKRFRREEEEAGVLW

Cc1n[nH]c(O)c1C(c1ccc(-c2cccc(Cl)c2)o1)c1c(C)n[nH]c1O
IC50 (Genome polyprotein): 56.5 µM (active) | EC50 (Protein RecA): 66.2 µM (active) | AC50 [1]: > 380 µM (inactive) | IC50 [2]: 2.19 µM (active) | IC50 [3]: 17.4 µM (active) | IC50 [4]: 3.19 µM (active)

FC(F)(F)c1nc(-c2cccs2)ncc1-c1nnnn1-c1ccc(Cl)cc1
AC50 [5]: 2.1 µM (active) | AC50 [6]: 42.6 µM (active) | AC50 [7]: 1.9 µM (active) | AC50 [8]: 29.1 µM (active) | AC50 [9]: 29 µM (active) | AC50 [10]: 23 µM (active) | AC50 [11]: 2.87 µM (active)

O=C1NC[C@H](Cc2ccccc2)N(C[C@H]2CCCN2C[C@H](Cc2ccc(O)cc2)N2C[C@H](Cc3ccc(O)cc3)N(CC3CCCCCC3)C(=O)C2=O)C1=O
EC50 (Mu-type opioid receptor): 92.5 µM (inactive) | EC50 [12]: 4.46 µM (active)

c1nc2nc[nH]c(N3CCN(Cc4ccc5c(c4)OCO5)CC3)c-2n1
EC50 (Mu-type opioid receptor): 92.5 µM (inactive) | EC50 [12]: 0.59 µM (active)

CCN(CCNCC(O)COc1ccccc1C(C)C)c1cccc(C)c1 (stereo not drawn)
CC50 [13]: 36.1 µM (active) | CC50 [14]: 20 µM (active) | IC50 [15]: 66.7 µM (active) | CC50 [16]: 14.2 µM (active)

C=CCN1CCc2c(cc(O)c(O)c2Br)[C@@H](c2ccccc2)C1
EC50 (Mu-type opioid receptor): 92.5 µM (inactive) | EC50 [12]: 0.0982 µM (active)
